Experimental data from PubChem BioAssay AID1963853 (Molecular Pharmacology Branch, DTP, NCI, 2024).

Test system: 266295-075-R-J1-PDC spheroid viability
Experiment: Anticancer human tumor 266295-075-R-J1-PDC patient-derived head and neck squamous carcinoma cell line growth inhibition [POLQ]
Details: spheroids with HUVEC and MSC; for IC50: curve of first compound; for viability, T/C: stronger effect = lower value; active = viability on the fitted dose curve at most 10% of control; inactive = the rest
Procedure, shortened: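 Three-cell-type spheroids modelling solid tumor plus stroma served as the readout system; POL inhibitors were tested individually and in combination, concentration ranges set by clinical Cmax where known.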

[1] = second compound 0.0316 µM, first compound 0.0316 µM
[2] = second compound 0.0316 µM, first compound 0.1 µM
[3] = second compound 0.0316 µM, first compound 0.316 µM
[4] = second compound 0.0316 µM, first compound 1 µM
[5] = second compound 0.0316 µM, first compound 3.16 µM
[6] = second compound 0.0316 µM, first compound 10 µM
[7] = second compound 0.1 µM, first compound 0.0316 µM
[8] = second compound 0.1 µM, first compound 0.1 µM
[9] = second compound 0.1 µM, first compound 0.316 µM
[10] = second compound 0.1 µM, first compound 1 µM
[11] = second compound 0.1 µM, first compound 3.16 µM
[12] = second compound 0.1 µM, first compound 10 µM
[13] = second compound 0.316 µM, first compound 0.0316 µM
[14] = second compound 0.316 µM, first compound 0.1 µM
[15] = second compound 0.316 µM, first compound 0.316 µM
[16] = second compound 0.316 µM, first compound 1 µM
[17] = second compound 0.316 µM, first compound 3.16 µM
[18] = second compound 0.316 µM, first compound 10 µM
[19] = second compound 1 µM, first compound 0.0316 µM
[20] = second compound 1 µM, first compound 0.1 µM
[21] = second compound 1 µM, first compound 0.316 µM
[22] = second compound 1 µM, first compound 1 µM
[23] = second compound 1 µM, first compound 3.16 µM
[24] = second compound 1 µM, first compound 10 µM
[25] = second compound 3.16 µM, first compound 0.0316 µM
[26] = second compound 3.16 µM, first compound 0.1 µM
[27] = second compound 3.16 µM, first compound 0.316 µM
[28] = second compound 3.16 µM, first compound 1 µM
[29] = second compound 3.16 µM, first compound 3.16 µM
[30] = second compound 3.16 µM, first compound 10 µM
[31] = second compound 10 µM, first compound 0.0316 µM
[32] = second compound 10 µM, first compound 0.1 µM
[33] = second compound 10 µM, first compound 0.316 µM
[34] = second compound 10 µM, first compound 1 µM
[35] = second compound 10 µM, first compound 3.16 µM
[36] = second compound 10 µM, first compound 10 µM
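Also: spheroids exposed to compounds for seven days before readout.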

CC1COCCN1c1cc(-c2ccnn2C)c2ccnc(-c3ccn[nH]3)c2n1 (stereo unspecified) + Cc1cccc(N(C)C(=O)C2C(O)CCN2c2nc(C)cc(C(F)(F)F)c2C#N)c1
1400 nM: IC50 (second compound 0.316 µM)
1780 nM: IC50 (second compound 10 µM)
1320 nM: IC50 (second compound 0.1 µM)
inactive: viability, T/C [1] 93.8% | viability, T/C [2] 69.7% | viability, T/C [3] 68.4% | viability, T/C [4] 56% | viability, T/C [5] 41% | viability, T/C [6] 40% | viability, T/C [7] 87.2% | viability, T/C [8] 68.4% | viability, T/C [9] 60.9% | viability, T/C [10] 52.6% | viability, T/C [11] 45.2% | viability, T/C [12] 40.9% | viability, T/C [13] 75.6% | viability, T/C [14] 78.2% | viability, T/C [15] 68.9% | viability, T/C [16] 50.7% | viability, T/C [17] 47.4% | viability, T/C [18] 36.9% | viability, T/C [19] 89% | viability, T/C [20] 81.6% | viability, T/C [21] 69.4% | viability, T/C [22] 48.4% | viability, T/C [23] 46.3% | viability, T/C [24] 38.1% | viability, T/C [25] 81.3% | viability, T/C [26] 78.4% | viability, T/C [27] 66.8% | viability, T/C [28] 54.9% | viability, T/C [29] 46.6% | viability, T/C [30] 36.7% | viability, T/C [31] 87.4% | viability, T/C [32] 90.1% | viability, T/C [33] 69.7% | viability, T/C [34] 56.3% | viability, T/C [35] 46.1% | viability, T/C [36] 38%
1870 nM: IC50 (second compound 3.16 µM)
1640 nM: IC50 (second compound 0.0316 µM)
1150 nM: IC50 (second compound 1 µM)

C=CCn1c(=O)c2cnc(Nc3ccc(N4CCN(C)CC4)cc3)nc2n1-c1cccc(C(C)(C)O)n1 + COC1C(OC(N)=O)C(O)C(Oc2ccc3c(O)c(NC(=O)c4ccc(O)c(CC=C(C)C)c4)c(=O)oc3c2C)OC1(C)C
inactive: viability, T/C (second compound 0.0316 µM, first compound 0.00316 µM) 106% | viability, T/C (second compound 0.0316 µM, first compound 0.01 µM) 111% | viability, T/C [1] 103% | viability, T/C [2] 102% | viability, T/C [3] 91.4% | viability, T/C [4] 65.5% | viability, T/C (second compound 0.1 µM, first compound 0.00316 µM) 112% | viability, T/C (second compound 0.1 µM, first compound 0.01 µM) 94.6% | viability, T/C [7] 82.5% | viability, T/C [8] 82.7% | viability, T/C [9] 77.2% | viability, T/C [10] 95.6% | viability, T/C (second compound 0.316 µM, first compound 0.00316 µM) 102% | viability, T/C (second compound 0.316 µM, first compound 0.01 µM) 93.8% | viability, T/C [13] 95% | viability, T/C [14] 104% | viability, T/C [15] 87.4% | viability, T/C [16] 70.6% | viability, T/C (second compound 1 µM, first compound 0.00316 µM) 97.1% | viability, T/C (second compound 1 µM, first compound 0.01 µM) 85.9% | viability, T/C [19] 92% | viability, T/C [20] 95.8% | viability, T/C [21] 91.3% | viability, T/C [22] 66.3% | viability, T/C (second compound 3.16 µM, first compound 0.00316 µM) 96% | viability, T/C (second compound 3.16 µM, first compound 0.01 µM) 90.8% | viability, T/C [25] 96.7% | viability, T/C [26] 98.3% | viability, T/C [27] 88.6% | viability, T/C [28] 65.3% | viability, T/C (second compound 10 µM, first compound 0.00316 µM) 104% | viability, T/C (second compound 10 µM, first compound 0.01 µM) 88.9% | viability, T/C [31] 102% | viability, T/C [32] 87.2% | viability, T/C [33] 87% | viability, T/C [34] 73.4%
> 1000 nM: IC50 (second compound 0.0316 µM) | IC50 (second compound 0.1 µM) | IC50 (second compound 0.316 µM) | IC50 (second compound 1 µM) | IC50 (second compound 3.16 µM) | IC50 (second compound 10 µM)

CC1COCCN1c1cc(C2(O)CC3CCC(C2)O3)c2cnn(-c3ccn[nH]3)c2n1 (stereo unspecified) + COC1C(OC(N)=O)C(O)C(Oc2ccc3c(O)c(NC(=O)c4ccc(O)c(CC=C(C)C)c4)c(=O)oc3c2C)OC1(C)C
921 nM: IC50 (second compound 1 µM)
1130 nM: IC50 (second compound 0.0316 µM)
inactive: viability, T/C [1] 84.7% | viability, T/C [2] 79.8% | viability, T/C [3] 65.6% | viability, T/C [4] 52.8% | viability, T/C [5] 36.9% | viability, T/C [6] 29.8% | viability, T/C [7] 92% | viability, T/C [8] 80.8% | viability, T/C [9] 62.7% | viability, T/C [10] 51.5% | viability, T/C [11] 44.6% | viability, T/C [12] 26.8% | viability, T/C [13] 103% | viability, T/C [14] 69.5% | viability, T/C [15] 64.8% | viability, T/C [16] 56.1% | viability, T/C [17] 43.2% | viability, T/C [18] 30.4% | viability, T/C [19] 87.2% | viability, T/C [20] 73.3% | viability, T/C [21] 75.3% | viability, T/C [22] 46.8% | viability, T/C [23] 41.7% | viability, T/C [24] 34.4% | viability, T/C [25] 84.2% | viability, T/C [26] 74.7% | viability, T/C [27] 57% | viability, T/C [28] 48.2% | viability, T/C [29] 42.9% | viability, T/C [30] 31% | viability, T/C [31] 81.2% | viability, T/C [32] 81.9% | viability, T/C [33] 63.2% | viability, T/C [34] 49.4% | viability, T/C [35] 39.3% | viability, T/C [36] 34.2%
898 nM: IC50 (second compound 3.16 µM)
1290 nM: IC50 (second compound 0.1 µM)
1050 nM: IC50 (second compound 0.316 µM)
903 nM: IC50 (second compound 10 µM)
